Measurements published in patent US20240043420A1, “7-AZAINDOLE COMPOUNDS FOR INHIBITION OF BCR-ABL TYROSINE KINASES” (EnLiven Therapeutics, Inc., priority 2020, published 2024).

Key:
K562 cells = experiment: K562 cell proliferation assay (CellTiter-Glo); assay type: cell-based; conditions: Homo sapiens, K562, 72 h, CellTiter-Glo viability, read-out: Cell Line (IC50, nM) K562
Description: (§1) K562 and HL60 cells, cultured in Iscove's Modified Dulbecco's Media (IMDM) supplemented with 10% FBS, were harvested at 50-80% confluency and plated at 2,000 cells per well (K562) or 1,500 cells per well (HL60) in 384-well tissue culture plates. A subset of wells contained media only (low control, LC). Compounds were serially diluted in DMSO. 40 nL of compound or DMSO only (high control, HC) were added to each well using an Echo 550 liquid handler (Labcyte). The plates were placed in a 37° C. incubator with 5% CO2 for 72 hours. Cell viability was measured using a CellTiter-Glo luminescent cell viability assay (Promega), which allows for relative quantification of metabolically active cells by luminescence-based measurements of intracellular ATP concentrations. Briefly, plates were removed from the incubator and equilibrated for 15 minutes at room temperature prior to the addition of 40 μL of CellTiter-Glo reagent. Plates were then incubated for 30 minutes at room temperature. Luminescence was measured using an EnSpire plate reader (Perkin Elmer). As noted above, luminescence values from wells with DMSO only or media without cells were used as high and low controls (HC and LC), respectively. Normalized percent viability was calculated as follows: percent viability=100×(Lumsample−LumLC)/(LumHC−LumLC).

ABL1 = molecular target: T1, ABL1 (Homo sapiens, UniProt P00519); experiment: Luminescence-based ABL kinase assay (ADP-Glo, 300 μM ATP); assay type: biochemical
T1 construct: purchased Carna Biosciences
Description: (§2) Kinase activity of ABL1 was measured using the ADP-Glo system (Promega), which measures formation of ADP using a luminescence-based method. Compounds were serially diluted in DMSO. 20 nL of compound or DMSO only (high control, HC) were added to a 384-well plate (OptiPlate-384, PerkinElmer) using an Echo550 liquid handler (Labcyte). 15 μL of kinase solution (10 mM MgCl2, 0.01% Brij-35, 2 mM DTT, 0.05% BSA, 1 mM EGTA, 50 mM HEPES pH 7.5, and 3.325 nM ABL1 [Carna Biosciences]) were added to each well of the 384-well plate containing the compounds. No enzyme control wells were included (low control, LC). The plate was incubated at room temperature for 30 minutes. 5 μL of a second solution containing 10 mM MgCl2, 0.01% Brij-35, 2 mM DTT, 0.05% BSA, 1 mM EGTA, 50 mM HEPES pH 7.5, 6 μM Peptide 2 (Perkin Elmer, Cat No 760346), and 1.2 mM ATP were added to each well to start the kinase reaction. The plate was incubated for 90 minutes at room temperature. 20 μL of ADP-Glo reagent (Promega) were then added to each well and the plate was incubated for 40 minutes at room temperature. 40 μL of kinase detection reagent (Promega) was added to each well and the plate was incubated for an additional 45 minutes at room temperature. During this step, ADP was converted to ATP, a substrate for luciferase, to produce luminescence signal. Luminescence was measured on an Envision plate reader (Perkin Elmer). Luminescence signal positively correlates with kinase activity. The percent kinase activity was calculated as follows: percent kinase activity=100×(Lumsample−LumLC)/(LumHC−LumLC). As noted above, DMSO only and no enzyme wells were used as high and low controls, respectively. IC50 values were calculated using the XLFit software.

HL60 cells = experiment: HL60 cell proliferation assay (CellTiter-Glo); assay type: cell-based; conditions: Homo sapiens, HL-60, 72 h, CellTiter-Glo viability, read-out: Cell Line (IC50, nM) HL60
Description: as §1

ABL1 (T315I) = ABL1 (T315I) (Homo sapiens, UniProt P00519, T315I); experiment: Luminescence-based ABL kinase assay (ADP-Glo, 300 μM ATP), T315I mutant; assay type: biochemical
Description: as §2

Compound	IC50 (K562 cells) [nM]	IC50 (ABL1) [nM]	IC50 (HL60 cells) [nM]	IC50 (ABL1 (T315I)) [nM]
O=C(Nc1ccc2c(-c3ccccc3Cl)c[nH]c2n1)C1CC1 [Compound 6, N-[3-(2-chlorophenyl)-1H-pyrrolo[2,3-b]pyridin-6-yl]cyclopropanecarboxamide]	452	123	> 10000	65.6
O=C(Nc1ccc2c(-c3cccc(O)c3)c[nH]c2n1)C1CC1 [Compound 13, N-[3-(3-hydroxyphenyl)-1H-pyrrolo[2,3-b]pyridin-6-yl]cyclopropanecarboxamide]	202	96.6	4450	9.74
COc1ncccc1-c1c[nH]c2nc(NC(=O)C3CC3)ccc12 [Compound 14, N-[3-(2-methoxypyridin-3-yl)-1H-pyrrolo[2,3-b]pyridin-6-yl]cyclopropanecarboxamide]	416	91.2	> 10000	52.8
COc1cc2cc[nH]c2cc1-c1c[nH]c2nc(NC(=O)C3CC3)ccc12 [Compound 17, N-[3-(5-methoxy-1H-indol-6-yl)-1H-pyrrolo[2,3-b]pyridin-6-yl]cyclopropanecarboxamide]	229	55.1	> 10000	28.6
O=C(Nc1ccc2c(-c3ccc4[nH]cnc4c3)c[nH]c2n1)C1CC1 [Compound 19, N-[3-(1H-1,3-benzodiazol-5-yl)-1H-pyrrolo[2,3-b]pyridin-6-yl]cyclopropanecarboxamide]	147	11.2	287	4.57
O=C(Nc1ccc2c(-c3ccc4[nH]ncc4c3)c[nH]c2n1)C1CC1 [Compound 21, N-(3-(1H-indazol-5-yl)-1H-pyrrolo[2,3-b]pyridin-6-yl)cyclopropanecarboxamide]	286	94.8	1570	8.74
COc1cccc(F)c1-c1c[nH]c2nc(NC(=O)[C@H]3C[C@H]3F)ccc12 [Compound 22, (1R,2R)-2-fluoro-N-[3-(2-fluoro-6-methoxyphenyl)-1H-pyrrolo[2,3-b]pyridin-6-yl]cyclopropane-1-carboxamide]	421	78.9	> 10000	7.17
O=C(Nc1ccc2c(-c3ccc4[nH]cnc4c3)c[nH]c2n1)[C@@H]1C[C@@H]1F [Compound 28, (1S,2S)—N-[3-(1H-1,3-benzodiazol-5-yl)-1H-pyrrolo[2,3-b]pyridin-6-yl]-2-fluorocyclopropane-1-carboxamide]	62.1	7.58	385	2.84
Cc1nc2cc(-c3c[nH]c4nc(NC(=O)C5CC5)ccc34)ccc2[nH]1 [Compound 29, N-(3-(2-methyl-1H-benzo[d]imidazol-5-yl)-1H-pyrrolo[2,3-b]pyridin-6-yl)cyclopropanecarboxamide]	454	41.8	470	10.5
CNc1ncccc1-c1c[nH]c2nc(NC(=O)C3CC3)ccc12 [Compound 37, N-[3-[2-(methylamino)pyridin-3-yl]-1H-pyrrolo[2,3-b]pyridin-6-yl]cyclopropanecarboxamide]	231	46.1	> 10000	103
COc1ccccc1-c1c[nH]c2nc(NC(=O)NCCN3CCOCC3)ccc12 [Compound 43, 3-[3-(2-methoxyphenyl)-1H-pyrrolo[2,3-b]pyridin-6-yl]-1-[2-(morpholin-4-yl)ethyl]urea]	779	91.1	> 10000	15.6
O=C(Nc1ccc2c(-c3cccnc3OC(F)F)c[nH]c2n1)C1CC1 [Compound 48, N-[3-[2-(difluoromethoxy)pyridin-3-yl]-1H-pyrrolo[2,3-b]pyridin-6-yl]cyclopropanecarboxamide]	777	94.9	9210	244
COc1nc2cn[nH]c2cc1-c1c[nH]c2nc(NC(=O)C3CC3)ccc12 [Compound 60, N-(3-[5-methoxy-1H-pyrazolo[4,3-b]pyridin-6-yl]-1H-pyrrolo[2,3-b]pyridin-6-yl)cyclopropanecarboxamide]	5170	218	> 10000	417
CCOc1ncccc1-c1n[nH]c2nc(NC(=O)[C@@H]3C[C@@H]3F)ccc12 [Compound 64, (1S,2S)—N-[3-(2-ethoxypyridin-3-yl)-1H-pyrazolo[3,4-b]pyridin-6-yl]-2-fluorocyclopropane-1-carboxamide]	610	56.9	> 10000	140
CCOc1cccc(F)c1-c1n[nH]c2nc(NC(=O)[C@@H]3C[C@@H]3F)ccc12 [Compound 67, (1S,2S)—N-(3-(2-ethoxy-6-fluorophenyl)-1H-pyrazolo[3,4-b]pyridin-6-yl)-2-fluorocyclopropane-1-carboxamide]	1140	157	> 10000	37.7
COc1ncccc1-c1c(F)[nH]c2nc(NC(=O)[C@@H]3C[C@@H]3F)ccc12 [Compound 68, (1S,2S)-2-fluoro-N-[2-fluoro-3-(2-methoxypyridin-3-yl)-1H-pyrrolo[2,3-b]pyridin-6-yl]cyclopropane-1-carboxamide]	607	78.2	3690	19.2
O=C(Nc1ccc2c(-c3cccnc3OC3CC3)c[nH]c2n1)[C@@H]1C[C@@H]1F [Compound 69, (1S,2S)—N-[3-(2-cyclopropoxypyridin-3-yl)-1H-pyrrolo[2,3-b]pyridin-6-yl]-2-fluorocyclopropane-1-carboxamide]	162	27.6	> 10000	27.4
O=C(Nc1ccc2c(-c3cccnc3OC(F)F)c[nH]c2n1)[C@@H]1C[C@@H]1F [Compound 70, (1S,2S)—N-[3-[2-(difluoromethoxy)pyridin-3-yl]-1H-pyrrolo[2,3-b]pyridin-6-yl]-2-fluorocyclopropane-1-carboxamide]	312	60.3	> 10000	140
O=C(Nc1ccc2c(-c3ccc4nccn4c3)c[nH]c2n1)[C@@H]1C[C@@H]1F [Compound 71, (1S,2S)-2-fluoro-N-(3-[imidazo[1,2-a]pyridin-6-yl]-1H-pyrrolo[2,3-b]pyridin-6-yl)cyclopropane-1-carboxamide]	292	48	334	55.2
COc1cc2nccn2cc1-c1c[nH]c2nc(NC(=O)[C@@H]3C[C@@H]3F)ccc12 [Compound 72, (1S,2S)-2-fluoro-N-(3-(7-methoxyimidazo[1,2-a]pyridin-6-yl)-1H-pyrrolo[2,3-b]pyridin-6-yl)cyclopropane-1-carboxamide]	1020	70.2	> 10000	162
COc1cccc(OC)c1-c1n[nH]c2nc(NC(=O)[C@@H]3C[C@@H]3F)ccc12 [Compound 78, (1S,2S)—N-(3-(2,6-dimethoxyphenyl)-1H-pyrazolo[3,4-b]pyridin-6-yl)-2-fluorocyclopropane-1-carboxamide]	94.8	17.8	> 10000	139
